# From patent US20090036420A1, “BENZAMIDE DERIVATIVES AND THEIR USE FOR TREATING CNS DISORDERS” (priority 2007, published 2009)
# Target: T1, TAAR1 (Mus musculus, UniProt Q923Y8)
# T1 construct: expressed in transfected cells; host or cells: HEK293 cells (ATCC #CRL-1573), stably transfected with pIRESneo2 expression plasmid; membrane preparation
# Assay: Radioligand binding assay on membranes of HEK293 cells stably expressing TAAR1
# Conditions: Ki value (μM) in mouse, radioligand [3H]-rac-2-(1,2,3,4-tetrahydro-1-naphthyl)-2-imidazoline 60 nM, 4° C., 30 min
# Procedure: The Expand High Fidelity PCR System (Roche Diagnostics) was used with 1.5 mM Mg^2+ and purified PCR products were cloned into pCR2.1-TOPO cloning vector (Invitrogen) following the instructions of the manufacturer. PCR products were subcloned into the pIRESneo2 vector (BD Clontech, Palo Alto, Calif.), and expression vectors were sequence verified before introduction in cell lines.
# For the generation of stably transfected cell lines HEK293 cells were transfected with the pIRESneo2 expression plasmids containing the TAAR coding sequences (described above) with Lipofectamine 2000 (Invitrogen) according to the instructions of the manufacturer, and 24 hrs post transfection the culture medium was supplemented with 1 mg/ml G418 (Sigma, Buchs, Switzerland). After a culture period of about 10 d clones were isolated, expanded and tested for responsiveness to trace amines (all compounds purchased from Sigma) with the cAMP Biotrak Enzyme immunoassay (EIA) System (Amersham) following the non-acetylation EIA procedure provided by the manufacturer.
# Cells at confluence were rinsed with ice-cold phosphate buffered saline without Ca^2+ and Mg^2+ containing 10 mM EDTA and pelleted by centrifugation at 1000 rpm for 5 min at 4° C. The pellet was then washed twice with ice-cold phosphate buffered saline and cell pellet was frozen immediately by immersion in liquid nitrogen and stored until use at −80° C. Cell pellet was then suspended in 20 ml HEPES-NaOH (20 mM), pH 7.4 containing 10 mM EDTA, and homogenized with a Polytron (PT 3000, Kinematica) at 10,000 rpm for 10 s. The homogenate was centrifuged at 48,000×g for 30 min at 4° C. and the pellet resuspended in 20 ml HEPES-NaOH (20 mM), pH 7.4 containing 0.1 mM EDTA (buffer A), and homogenized with a Polytron at 10,000 rpm for 10 s. The homogenate was then centrifuged at 48,000×g for 30 min at 4° C. and the pellet resuspended in 20 ml buffer A, and homogenized with a Polytron at 10,000 rpm for 10 s. Protein concentration was determined by the method of Pierce (Rockford, Ill.). […] Non-specific binding was defined as the amount of [^3H]-rac-2-(1,2,3,4-tetrahydro-1-naphthyl)-2-imidazoline bound in the presence of the appropriate unlabelled ligand (10 μM). Competing ligands were tested in a wide range of concentrations (10 pM-30 μM). […] Each experiment was performed in duplicate. All incubations were terminated by rapid filtration through UniFilter-96 plates (Packard Instrument Company) and glass filter GF/C, pre-soaked for at least 2 h in polyethylenimine 0.3%, and using a Filtermate 96 Cell Harvester (Packard Instrument Company). The tubes and filters were then washed 3 times with 1 ml aliquots of cold buffer B. Filters were not dried and soaked in Ultima gold (45 μl/well, Packard Instrument Company) and bound radioactivity was counted by a TopCount Microplate Scintillation Counter (Packard Instrument Company).
# T1 sequence (Q923Y8 whole entry): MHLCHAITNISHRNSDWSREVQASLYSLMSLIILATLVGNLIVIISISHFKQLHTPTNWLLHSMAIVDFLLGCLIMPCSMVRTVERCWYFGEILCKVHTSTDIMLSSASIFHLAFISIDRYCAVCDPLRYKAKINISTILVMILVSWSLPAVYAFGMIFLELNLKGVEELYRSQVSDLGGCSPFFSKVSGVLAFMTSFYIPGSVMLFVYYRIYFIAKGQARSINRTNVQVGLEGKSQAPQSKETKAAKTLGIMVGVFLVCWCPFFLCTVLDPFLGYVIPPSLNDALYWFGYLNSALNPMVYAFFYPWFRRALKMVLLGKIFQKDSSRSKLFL
row,SMILES,Ki [µM]
1,"O=C(Nc1cccc(Cl)c1)c1cnc(N2CCC2)c(Cl)c1 [Example 162, 6-Azetidin-1-yl-5-chloro-N-(3-chloro-phenyl)-nicotinamide]",0.042
2,"COc1cccc(NC(=O)c2cccc(S(=O)(=O)N3CCCCCC3)c2)c1 [Example 170, 3-(Azepane-1-sulfonyl)-N-(3-methoxy-phenyl)-benzamide]",0.024
3,"CC(C)c1cccc(NC(=O)c2ccc(N3CCCC3)c(C(F)(F)F)c2)c1 [Example 182, N-(3-Isopropyl-phenyl)-4-pyrrolidin-1-yl-3-trifluoro-methyl-benzamide]",0.065
4,"O=C(Nc1cccc(Cl)c1)c1ccc(N2CCCC2)c(C(F)(F)F)c1 [Example 186, N-(3-Chloro-phenyl)-4-pyrrolidin-1-yl-3-trifluoro-methyl-benzamide]",0.02
5,COc1cccc(NC(=O)c2cnc(NCc3ccccc3)c(C(F)(F)F)c2)c1 [Example 199],0.0056
6,COc1cccc(NC(=O)c2cnc(NC(C)C)c(C(F)(F)F)c2)c1 [Example 200],0.0597
7,COc1cccc(NC(=O)c2cnc(N3CCCCC3)c(Cl)c2)c1 [Example 206],0.0207
8,CCCCNc1ncc(C(=O)Nc2cccc(OC)c2)cc1Cl [Example 208],0.0463

# Same assay, conditions: radioligand [3H]-rac-2-(1,2,3,4-tetrahydro-1-naphthyl)-2-imidazoline 60 nM, 4° C., 30 min, read-out: Ki value (μM) in mouse
row,SMILES,Ki [µM]
1,"O=C(Nc1cccc(Cl)c1)c1cnc(N2CCCCC2)c(Cl)c1 [Example 163, 3′-Chloro-3,4,5,6-tetrahydro-2H-[1,2′]bipyridinyl-5′-carboxylicacid (3-chloro-phenyl)-amide]",0.038
2,"CN1CCN(c2ncc(C(=O)Nc3cccc(Cl)c3)cc2Cl)CC1 [Example 164, 5-Chloro-N-(3-chloro-phenyl)-6-(4-methyl-piperazin-1-yl)-nicotinamide]",0.001
3,"Cc1cnc(C)n1Cc1cccc(NC(=O)c2ccc(Cl)c(Cl)c2)c1 [Example 177, 3,4-Dichloro-N-[3-(2,5-dimethyl-imidazol-1-ylmethyl)-phenyl]-benzamide]",0.049
4,"COc1cccc(NC(=O)c2cnc(Cl)c(C(F)(F)F)c2)c1 [Example 178, 6-Chloro-N-(3-methoxy-phenyl)-5-trifluoromethyl-nicotinamide]",0.008
5,"COc1cccc(NC(=O)c2cnc(N3CCCC3)c(C(F)(F)F)c2)c1 [Example 179, N-(3-Methoxy-phenyl)-6-pyrrolidin-1-yl-5-trifluoromethyl-nicotinamide]",0.002
6,"CCc1cccc(NC(=O)c2ccc(N3CCCC3)c(C(F)(F)F)c2)c1 [Example 180, N-(3-Ethyl-phenyl)-4-pyrrolidin-1-yl-3-trifluoromethyl-benzamide]",0.021
7,"CCOc1cccc(NC(=O)c2ccc(N3CCCC3)c(C(F)(F)F)c2)c1 [Example 181, N-(3-Ethoxy-phenyl)-4-pyrrolidin-1-yl-3-trifluoro-methyl-benzamide]",0.001
8,"CC(C)Oc1cccc(NC(=O)c2ccc(N3CCCC3)c(C(F)(F)F)c2)c1 [Example 183, N-(3-Isopropoxy-phenyl)-4-pyrrolidin-1-yl-3-trifluoro-methyl-benzamide]",0.007
9,"CC(=O)c1cccc(NC(=O)c2ccc(N3CCCC3)c(C(F)(F)F)c2)c1 [Example 184, N-(3-Acetyl-phenyl)-4-pyrrolidin-1-yl-3-tri-fluoromethyl-benzamide]",0.026
10,"O=C(Nc1cccc(F)c1)c1ccc(N2CCCC2)c(C(F)(F)F)c1 [Example 185, N-(3-Fluoro-phenyl)-4-pyrrolidin-1-yl-3-trifluoro-methyl-benzamide]",0.009
11,"O=C(Nc1cccc(Br)c1)c1ccc(N2CCCC2)c(C(F)(F)F)c1 [Example 187, N-(3-Bromo-phenyl)-4-pyrrolidin-1-yl-3-trifluoro-methyl-benzamide]",0.046
12,"Cc1cccc(NC(=O)c2ccc(N3CCCC3)c(C(F)(F)F)c2)c1 [Example 189, 4-Pyrrolidin-1-yl-N-m-tolyl-3-trifluoro-methyl-benzamide]",0.016
13,"O=C(Nc1cccc(OC(F)F)c1)c1ccc(N2CCCC2)c(C(F)(F)F)c1 [Example 190, N-(3-Difluoro-methoxy-phenyl)-4-pyrrolidin-1-yl-3-trifluoro-methyl-benzamide]",0.012
14,"O=C(Nc1cccc(OC(F)(F)C(F)F)c1)c1ccc(N2CCCC2)c(C(F)(F)F)c1 [Example 192, 4-Pyrrolidin-1-yl-N-[3-(1,1,2,2-tetrafluoro-ethoxy)-phenyl]-3-trifluoro-methyl-benzamide]",0.039
15,"COc1cccc(NC(=O)c2ccc(N3CCCCCC3)c(C(F)(F)F)c2)c1 [Example 195, 4-Azepan-1-yl-N-(3-methoxy-phenyl)-3-trifluoromethyl-benzamide]",0.011
16,"COc1cccc(NC(=O)c2ccc(N3CCC(C#N)CC3)c(C(F)(F)F)c2)c1 [Example 196, 4-(4-Cyano-piperidin-1-yl)-N-(3-methoxy-phenyl)-3-trifluoromethyl-benzamide]",0.022
17,"COc1cccc(NC(=O)c2ccc(N3CCC(C(F)(F)F)CC3)c(C(F)(F)F)c2)c1 [Example 197, N-(3-Methoxy-phenyl)-3-trifluoromethyl-4-(4-trifluoromethyl-piperidin-1-yl)-benzamide]",0.003
18,COc1cccc(NC(=O)c2cnc(N3CCC(C)CC3)c(C(F)(F)F)c2)c1 [Example 201],0.0017
19,COc1cccc(NC(=O)c2cnc(N3CCCC3)c(Cl)c2)c1 [Example 205],0.0101
20,COc1cccc(NC(=O)c2cnc(N3CCC(C)CC3)c(Cl)c2)c1 [Example 207],0.0098
21,"O=C(Nc1cccc(Cl)c1)c1cnc(N2CCNCC2)c(Cl)c1 [Example 210, 5-Chloro-N-(3-chloro-phenyl)-6-piperazin-1-yl-nicotinamide]",0.0348
22,"COc1cccc(NC(=O)c2ccc(Cl)c(C(F)(F)F)c2)c1 [Example 216, 4-Chloro-N-(3-methoxy-phenyl)-3-trifluoromethyl-benzamide]",0.0058
23,"O=C(Nc1ccccc1)c1ccc(Cl)c(Cl)c1 [Example 217, 3,4-Dichloro-N-phenyl-benzamide]",0.054
24,"O=C(Nc1cccc(Cl)c1)c1ccc(Cl)c(Cl)c1 [Example 218, 3,3′,4-Trichlorobenzanilide]",0.06
25,"O=C(Nc1ccccc1)c1ccc([N+](=O)[O-])c(C(F)(F)F)c1 [Example 219, 3-Trifluoromethyl-4-nitro-N-phenyl-benzamide]",0.067
26,"Cc1cccc(C(=O)Nc2ccc(Cl)c(Cl)c2)c1 [Example 220, N-(3,4-Dichloro-phenyl)-3-methyl-benzamide]",0.068
27,"O=C(Nc1cccc(Cl)c1)c1ccc(Cl)c(Cl)c1 [Example 283, 3,4-Dichloro-N-(3-chloro-phenyl)-benzamide]",0.06
28,"O=C(Nc1ccccc1)c1ccc(Cl)c(Cl)c1 [Example 319, 3,4-Dichloro-N-phenyl-benzamide]",0.0543
29,"O=C(Nc1ccccc1)c1ccc([N+](=O)[O-])c(C(F)(F)F)c1 [Example 324, 4-Nitro-N-phenyl-3-trifluoromethyl-benzamide]",0.0674
